Source: the NIST ThermoML archive (doi:10.1021/je500936y)
± gives the expanded uncertainty stated by the source.

Legend:
[1] = 100 kPa, Liquid; for speed of sound: Frequency=3 MHz, Sing-around technique in a fixed-path interferometer; for mass density: Vibrating tube method
[2] = refractive index (Na D-line) (dimensionless); settings: 100 kPa, Liquid, Standard Abbe refractometry
[3] = refractive index (Na D-line) (dimensionless); xn = mol fraction of the nth substance listed; settings: 100 kPa, Liquid, Standard Abbe refractometry, x1 = 1
[4] = xn = mol fraction of the nth substance listed; settings: 100 kPa, Liquid, x1 = 1; for speed of sound: Frequency=3 MHz, Sing-around technique in a fixed-path interferometer; for mass density: Vibrating tube method

| SMILES | speed of sound ([1]; 298.15 K) [m/s] | mass density ([1]; 298.15 K) [kg/m3] | speed of sound ([1]; 303.15 K) [m/s] | mass density ([1]; 303.15 K) [kg/m3] | speed of sound ([1]; 308.15 K) [m/s] | mass density ([1]; 308.15 K) [kg/m3] | speed of sound ([1]; 313.15 K) [m/s] | mass density ([1]; 313.15 K) [kg/m3] | speed of sound ([1]; 318.15 K) [m/s] | mass density ([1]; 318.15 K) [kg/m3] | speed of sound ([1]; 323.15 K) [m/s] | mass density ([1]; 323.15 K) [kg/m3] | refractive index ([2]; 298.15 K) | refractive index ([2]; 303.15 K) | refractive index ([2]; 308.15 K) | refractive index ([2]; 313.15 K) | refractive index ([2]; 318.15 K) | refractive index ([2]; 323.15 K) | other results |
| --- | --- | --- | --- | --- | --- | --- | --- | --- | --- | --- | --- | --- | --- | --- | --- | --- | --- | --- | --- |
| CCCCn1cc[n+](C)c1.F[B-](F)(F)F [1-butyl-3-methylimidazolium tetrafluoroborate] | 1565.1 ± 1.3 | 1198.78 ± 0.39 | 1553.2 ± 1.2 | 1195.18 ± 0.39 | 1541.3 ± 1.2 | 1191.6 ± 0.39 | 1529.7 ± 1.2 | 1188.04 ± 0.38 | 1518.2 ± 1.2 | 1184.5 ± 0.38 | 1506.8 ± 1.2 | 1180.98 ± 0.38 | 1.42058 ± 0.00087 | 1.41913 ± 0.00087 | 1.41764 ± 0.00087 | 1.41621 ± 0.00087 | 1.41472 ± 0.00087 | 1.4133 ± 0.00087 | – |
| CCCCn1cc[n+](C)c1.F[B-](F)(F)F [1-butyl-3-methylimidazolium tetrafluoroborate] + C=CN1CCCC1=O | – | – | – | – | – | – | – | – | – | – | – | – | – | – | – | – | – | – | refractive index ([3]; 298.15 K): 1.42058 ± 0.00087; refractive index ([3]; 303.15 K): 1.41913 ± 0.00087; refractive index ([3]; 308.15 K): 1.41764 ± 0.00087; refractive index ([3]; 313.15 K): 1.41621 ± 0.00087; refractive index ([3]; 318.15 K): 1.41472 ± 0.00087; refractive index ([3]; 323.15 K): 1.4133 ± 0.00087; speed of sound ([4]; 298.15 K): 1565.1 ± 1.3 m/s; mass density ([4]; 298.15 K): 1198.78 ± 0.39 kg/m3; speed of sound ([4]; 303.15 K): 1553.2 ± 1.2 m/s; mass density ([4]; 303.15 K): 1195.18 ± 0.39 kg/m3; speed of sound ([4]; 308.15 K): 1541.3 ± 1.2 m/s; mass density ([4]; 308.15 K): 1191.6 ± 0.39 kg/m3; speed of sound ([4]; 313.15 K): 1529.7 ± 1.2 m/s; mass density ([4]; 313.15 K): 1188.04 ± 0.38 kg/m3; speed of sound ([4]; 318.15 K): 1518.2 ± 1.2 m/s; mass density ([4]; 318.15 K): 1184.5 ± 0.38 kg/m3; speed of sound ([4]; 323.15 K): 1506.8 ± 1.2 m/s; mass density ([4]; 323.15 K): 1180.98 ± 0.38 kg/m3 |
| C=CN1CCCC1=O [N-vinylpyrrolidone] | 1521.5 ± 3.1 | 1039.36 ± 2 | 1502.5 ± 3.1 | 1034.95 ± 2 | 1483.7 ± 3.1 | 1030.55 ± 2 | 1465 ± 3.1 | 1026.14 ± 2 | 1446.5 ± 3.1 | 1021.73 ± 2 | 1428.1 ± 3.1 | 1017.33 ± 1.9 | 1.51119 ± 0.001 | 1.50886 ± 0.001 | 1.5065 ± 0.001 | 1.50415 ± 0.001 | 1.50181 ± 0.001 | 1.49948 ± 0.001 | – |
